Data published in patent publication US20250235410A1, “WATER-SOLUBLE CANNABIDIOL MICROCAPSULES AND PREPARATION METHOD THEREOF” (Northeast Agricultural University, priority 2022, published 2025).

Key:
[1] = Influence of environmental pH value on stability (retention rate of CBD); format: physicochemical; conditions: 4 °C, 12 h
Protocol: (§1) Determination of retention rate of CBD in MRPs-CBD microcapsules: the above method to determine CBD content in MRPs-CBD microcapsules is used to accurately determine the initial CBD content in MRPs-CBD microcapsules and the CBD content retained in microcapsules under different treatment methods, and the retention rate of CBD in microcapsules is calculated according to the following formula: […]
A proper amount of samples are weighed and dissolved in distilled water, and the pH values of the solutions are adjusted as 1, 2, 3, 4, 5, 6, 7, 8, 9, 10, 11 and 12 respectively, and samples are placed in a sealed and dark environment at 4° C. for 12 h, then taken out and its retention rate of CBD is determined.

[2] = Influence of incandescent light on stability (retention rate of CBD); format: physicochemical; conditions: 15th day of incandescent light (25 W), 4 °C, sealed
Protocol: as §1
A proper amount of samples are weighed, sealed, placed under incandescent light (25 W) at 4° C. for 15 d, and taken out on the 1st, 3rd, 6th, 9th, 12th and 15th day respectively, and the retention rate of CBD is determined.

[3] = Influence of temperature on stability (retention rate of CBD); format: physicochemical; conditions: 4-100 °C, sealed, dark, 12 h
Protocol: Determination of retention rate of CBD in MRPs-CBD microcapsules: the above method to determine CBD content in MRPs-CBD microcapsules is used to accurately determine the initial CBD content in MRPs-CBD microcapsules and the CBD content retained in microcapsules under different treatment methods, and the retention rate of CBD in microcapsules is calculated according to the following formula:
An appropriate amount of samples are weighed, placed in a sealed and dark environment at 4° C., 25° C., 37° C., 50° C., 80° C. and 100° C. for 12 h and taken out, and the retention rate of CBD is determined.

[4] = DPPH radical scavenging rate; format: biochemical; conditions: P<0.05
Protocol: (§2) The antioxidant activity of glycosylation product-based water-soluble cannabidiol microcapsules is analyzed through radical scavenging rate. The scavenging ability of 1,1-Diphenyl-2-picrylhydrazyl (DPPH) and, 2′-azino-bis (3-ethylbenzothiazoline-6-sulfonic acid (ABTS^+) radical cation is mainly studied.
Determination of DPPH radical scavenging rate: 1 mL of CBD with different concentrations, methanol solution of microcapsules with different concentrations and 4 mL of 0.1 mmol/L DPPH solution (DPPH dissolved in 95% ethanol) are mixed evenly, and kept in the dark for 30 min at room temperature. Using 95% ethanol as reference solution, the absorbance at 517 nm is read. The absorbance value of the sample mixed with DPPH ethanol solution is recorded as A, the absorbance value of the sample mixed with 95% ethanol solution is Ai, and the absorbance value of the single DPPH ethanol solution is Aj. The calculation formula is as follows: […]

[5] = Release in simulated intestinal juice; format: in vitro ADME; conditions: 1 h in simulated intestinal juice
Protocol: An appropriate amount of samples are weighed and released in simulated intestinal juice. Samples are taken according to the time gradient of 0.5, 1.0, 1.5, 2.0, 2.5 and 3.0 h, and the cumulative release rate of CBD is determined.

[6] = Release in simulated gastric juice; format: in vitro ADME; conditions: 1 h in simulated gastric juice
Protocol: An appropriate amount of samples are weighed and released in simulated gastric juice. Samples are taken according to the time gradient of 0.5, 1.0, 1.5, 2.0, 2.5 and 3.0 h, and the cumulative release rate of CBD is determined.

[7] = Influence of oxygen on stability (retention rate of CBD); format: physicochemical; conditions: 15th day, dark, aerobic
Protocol: as §1
An appropriate amount of samples are weighed, placed at 4° C. and 25° C. for 15 days in the dark and aerobic conditions, and taken out at on 1st, 3rd, 5th, 7th, 9th, 12th and 15th day to determine the retention rate of CBD. See FIG. 8A and FIG. 8B for the test results.

[8] = ABTS+ radical cation scavenging rate; format: biochemical; conditions: P<0.05
Protocol: as §2
Determination of ABTS^+ radical scavenging rate: 10 mg of ABTS and 2.9 mg of potassium persulfate are taken, dissolved in 10 mL of 0.01 mol/L sodium phosphate buffer, and stored in the dark at 25° C. for 15 h for later use. 2.5 mL ABTS solution is taken, added with 20 mL of 0.01 mol/L sodium phosphate buffer, and diluted with distilled water so that the absorbance at 734 nm is 0.7, to obtain an ABTS analysis solution. 1 mL of CBD with different concentrations and methanol solutions of microcapsules with different concentrations are taken respectively, added with 2 mL of above ABTS analysis solution to the test tube for reacting for 10 min, and then 95% ethanol is used as reference solution to read the absorbance value at 734 nm. The absorbance value of the sample mixed with ABTS analysis solution is marked as A, the absorbance value of the sample mixed with 95% ethanol solution is Ai, and the absorbance value of the single ABTS analysis solution is Aj. The calculation formula is as follows: […]

C=C(C)[C@@H]1CCC(C)=C[C@H]1c1c(O)cc(CCCCC)cc1O [unencapsulated CBD, Cannabidiol]
retention rate of CBD, trend ([1]; environmental pH increases from 1 to 6): increase significantly | retention rate of CBD, trend ([1]; environmental pH increases from 8 to 12): decrease significantly | retention rate of CBD [2]: 24.53±1.56% | retention rate of CBD, trend with increase of temperature [3]: continuous downward trends | DPPH scavenging rate, change with increase of CBD concentration [4]: increase significantly | fate of CBD in simulated intestinal juice [5]: completely digested and degraded | fate of CBD in simulated gastric juice [6]: completely digested and degraded | retention rate of CBD ([7]; 4 °C): 43.87±1.83% | retention rate of CBD ([7]; 25 °C): 38.85±1.76% | ABTS+ scavenging rate, change with increase of CBD concentration [8]: increase significantly
